ChEMBL document CHEMBL3576842, “Selenium-containing chrysin and quercetin derivatives: attractive scaffolds for cancer therapy” (J Med Chem, 2015)
Active and inactive are the calls of the source. The rule behind the calls is not given here.

Experiments:
[1] = system: A-431; assay: Resistance factor, ratio of IC50 for cisplatin-resistant human A431 cells to IC50 for human A431 cells; format: functional
[2] = system: HEK293; assay: Selectivity index, ratio of IC50 for HEK293 cells to IC50 for cisplatin-resistant human A431 cells; format: functional
[3] = system: MCF7; assay: Cytotoxicity against human MCF7 cells assessed as cell growth inhibition after 72 hrs by MTT assay; format: functional, cell-based; settings: MCF7, 72 h
[4] = system: C13; assay: Selectivity index, ratio of IC50 for HEK293 cells to IC50 for human C13 cells; format: functional
[5] = Cytotoxicity against human C13 cells assessed as cell growth inhibition after 72 hrs by MTT assay; format: functional, cell-based; settings: C13, 72 h
[6] = Cytotoxicity against human MCF7/ADR cells assessed as cell growth inhibition after 72 hrs by MTT assay; format: functional, cell-based; settings: NCI/ADR-RES
[7] = system: NCI/ADR-RES; assay: Resistance factor, ratio of IC50 for human MCF7/ADR cells to IC50 for human MCF7 cells; format: functional
[8] = system: A-375; assay: Cytotoxicity against human A375 cells assessed as cell growth inhibition after 72 hrs by MTT assay; format: functional, cell-based; settings: A-375, 72 h
[9] = system: HEK293; assay: Selectivity index, ratio of IC50 for HEK293 cells to IC50 for human HCT15 cells; format: functional
[10] = Antioxidant activity assessed as DPPH radical scavenging activity after 1 hr; format: physicochemical
[11] = system: HEK293; assay: Selectivity index, ratio of IC50 for HEK293 cells to IC50 for human 2008 cells; format: functional
[12] = system: 2008; assay: Cytotoxicity against human 2008 cells assessed as cell growth inhibition after 72 hrs by MTT assay; format: functional, cell-based; settings: Homo sapiens, 2008, 72 h
[13] = system: A-431; assay: Cytotoxicity against cisplatin-resistant human A431 cells assessed as cell growth inhibition after 72 hrs by MTT assay; format: functional, cell-based; settings: A-431, 72 h
[14] = system: HEK293; assay: Selectivity index, ratio of IC50 for HEK293 cells to IC50 for human A431 cells; format: functional
[15] = system: HEK293; assay: Selectivity index, ratio of IC50 for HEK293 cells to IC50 for human A375 cells; format: functional
[16] = system: HCT-15; assay: Cytotoxicity against human HCT15 cells assessed as cell growth inhibition after 72 hrs by MTT assay; format: functional, cell-based; settings: HCT-15, 72 h
[17] = system: HEK293; assay: Selectivity index, ratio of IC50 for HEK293 cells to IC50 for human BxPC3 cells; format: functional
[18] = system: HEK293; assay: Selectivity index, ratio of IC50 for HEK293 cells to IC50 for human MCF7 cells; format: functional
[19] = system: HEK293; assay: Cytotoxicity against HEK293 cells assessed as cell growth inhibition after 72 hrs by MTT assay; format: cell-based; settings: Homo sapiens, HEK293, 72 h
[20] = Cytotoxicity against human BxPC3 cells assessed as cell growth inhibition after 72 hrs by MTT assay; format: functional, cell-based; settings: BXPC-3, 72 h
[21] = system: NCI/ADR-RES; assay: Selectivity index, ratio of IC50 for HEK293 cells to IC50 for human MCF7/ADR cells; format: functional
[22] = system: A-431; assay: Cytotoxicity against human A431 cells assessed as cell growth inhibition after 72 hrs by MTT assay; format: functional, cell-based; settings: A-431, 72 h
[23] = system: C13; assay: Resistance factor, ratio of IC50 for cisplatin-resistant human C13 cells to IC50 for human 2008 cells; format: functional
[24] = Antioxidant activity assessed as DPPH radical scavenging activity at 1 mM after 1 hr; format: physicochemical; settings: 1000 µM
[25] = molecular target: T1, Thioredoxin reductase (Homo sapiens) (UniProt Q16881+Q9NNW7+Q86VQ6); assay: Increase in thioredoxin reductase activity in HEK293 cells at 0.0625 to 0.625 uM after 24 hrs by DTNB reduction assay; format: cell-based; parameters: scale not given: the % may be the effect or the level left
[26] = system: MCF7; assay: Decrease in total sulfhydryl gropus in human MCF7 cells at IC50 after 24 hrs by DTNB reduction assay; format: functional
[27] = system: MCF7; assay: Anticlonogenic activity against human MCF7 cells assessed as inhibition of clonogenic expansion after 6 hrs; format: functional, cell-based
[28] = molecular target: T1, Thioredoxin reductase (Homo sapiens); assay: Inhibition of thioredoxin reductase activity in human MCF7 cells at 20 uM after 24 hrs by DTNB reduction assay; format: cell-based
[29] = system: MCF7; assay: Drug uptake in human MCF7 cells assessed as intracellular Se accumulation at 12.5 to 25 uM after 12 to 24 hrs by GF-AAS analysis; format: ADME, cell-based; settings: mcf7, 25 µM
[30] = system: MCF7; assay: Induction of apoptosis in human MCF7 cells assessed as brightly stained nuclei, chromatin condensation and fragmentation at IC50 after 48 hrs by Hoechst 33258/PI fluorescent staining analysis; format: functional, cell-based
[31] = system: MCF7; assay: Decrease in total glutathione level in human MCF7 cells at IC50 after 48 hrs by spectrophotometric analysis; format: functional
[32] = system: MCF7; assay: Induction of apoptosis in human MCF7 cells assessed as caspase-3 activation using DEVD-AFC as substrate at IC50 after 48 hrs by spectrofluorimeter analysis; format: functional
[33] = system: MCF7; assay: Increase in oxidant species production in human MCF7 cells at 25 uM by CM-DCFDA based fluorescence plate reader analysis; format: functional, cell-based
[34] = system: MCF7; assay: Induction of apoptosis in human MCF7 cells assessed as decrease in mitochondrial membrane potential at IC50 after 48 hrs by flow cytometry; format: functional
[35] = system: MCF7; assay: Increase in oxidized glutathione level in human MCF7 cells at IC50 after 48 hrs by spectrophotometric analysis; format: functional
[36] = Antioxidant activity assessed as glutathione peroxidase-like activity measured as time required to oxidize dithiothretol by 50% after addition of H2O2 at 3.24 umol; format: physicochemical
[37] = system: MCF7; assay: Effect on glutathione peroxidase activity in human MCF7 cells using tert-butyl hydroperoxide and GSH as substrate at 1.25 to 20 uM after 24 hrs by spectrophotometric analysis; format: cell-based
[38] = molecular target: T2, Glutathione reductase, mitochondrial (Homo sapiens) (UniProt P00390); assay: Effect on glutathione reductase activity in human MCF7 cells using GSSG as substrate at 1.25 to 20 uM after 24 hrs by spectrophotometric analysis; format: cell-based
T2 sequence (whole entry): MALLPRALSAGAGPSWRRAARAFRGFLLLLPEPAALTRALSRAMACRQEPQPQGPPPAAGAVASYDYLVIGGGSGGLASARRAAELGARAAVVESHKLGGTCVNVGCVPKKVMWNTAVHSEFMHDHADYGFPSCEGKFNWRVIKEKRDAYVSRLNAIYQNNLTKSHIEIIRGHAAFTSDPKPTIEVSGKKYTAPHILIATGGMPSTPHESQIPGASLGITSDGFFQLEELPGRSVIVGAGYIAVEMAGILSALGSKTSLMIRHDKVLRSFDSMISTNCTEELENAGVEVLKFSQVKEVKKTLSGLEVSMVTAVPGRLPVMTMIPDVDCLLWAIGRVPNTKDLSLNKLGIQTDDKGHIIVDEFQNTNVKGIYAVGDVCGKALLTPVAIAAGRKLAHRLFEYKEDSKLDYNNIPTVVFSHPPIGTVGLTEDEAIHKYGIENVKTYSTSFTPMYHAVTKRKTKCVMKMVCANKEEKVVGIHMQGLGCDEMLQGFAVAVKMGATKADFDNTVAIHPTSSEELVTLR

[39] = molecular target: T1, Thioredoxin reductase (Homo sapiens); assay: Inhibition of thioredoxin reductase activity in human MCF7 cells after 24 hrs by DTNB reduction assay; format: cell-based

Row | SMILES | Ratio IC50 [1] | Ratio IC50 [2] | IC50 [3] [µM] | Ratio IC50 [4] | IC50 [5] [µM] | IC50 [6] [µM] | IC50 [8] [µM] | Ratio IC50 [9] | Ratio IC50 [11] | IC50 [12] [µM] | IC50 [13] [µM] | Ratio IC50 [14] | Ratio IC50 [15] | IC50 [16] [µM] | Ratio IC50 [17] | Ratio IC50 [18] | IC50 [19] [µM] | IC50 [20] [µM] | Ratio IC50 [21] | IC50 [22] [µM] | other results
1 | Oc1cc(O)c2c(=S)cc(-c3ccccc3)oc2c1 | 1.6 | 1.2 | 70.4 | 1.2 | 58.5 | 72.3 | 36.5 | 1.2 | 1.2 | 41.1 | 98.4 | 1.2 | 1.2 | 56.6 | 1.2 | 1.2 | 68.3 | 64.4 | 1.2 | 66.3 | Ratio IC50 [7]: 1; IC50 [10]: 4600 µM; Ratio IC50 [23]: 1.4
2 | O=c1c(O)c(-c2ccc(O)c(O)c2)oc2cc(O)cc(O)c12 [QUERCETIN] | 1.5 | 2.5 | 20.9 | 2.5 | 37.6 | 22.2 | 25.1 | 2.5 | 2.5 | 21.2 | 34.4 | 2.5 | 2.5 | 16.4 | 2.5 | 2.5 | 54.6 | 24.1 | 2.5 | 23 | Ratio IC50 [7]: 1.1; IC50 [10]: 28 µM; Activity [24]: 95.6%; Ratio IC50 [23]: 1.8
3 | Oc1cc(O)c2c(=[Se])cc(-c3ccccc3)oc2c1 | 2 | 3.7 | 2.25 | 3.7 | 4.04 | 1.96 | 1.09 | 3.7 | 3.7 | 2.87 | 3.18 | 3.7 | 3.7 | 3.17 | 3.7 | 3.7 | 8.13 | 2.31 | 3.7 | 1.61 | Activity [25]: 35%; inhibition (INH) [26]: 60%; inhibition [27]: Active; inhibition [28]: 75%; Drug uptake [29]: Active; Ratio IC50 [7]: 0.9; IC50 [10]: 659 µM; Activity [30]: Active; inhibition (INH) [31]: 60%; fold change (FC) [32]: 4; Activity [33]: Active; fold change (FC) [34]: 4; fold change (FC) [35]: 4; Time [36]: 3.62 min; Activity [37]: inactive; Activity [38]: inactive; Ratio IC50 [23]: 1.4
4 | COc1cc(O)c2c(=[Se])c(OC)c(-c3ccc(OC)c(OC)c3)oc2c1 | 1.2 | 5.1 | 3.08 | 5.1 | 2.29 | 3.35 | 2.21 | 5.1 | 5.1 | 2.09 | 3.78 | 5.1 | 5.1 | 2.23 | 5.1 | 5.1 | 17.3 | 2.42 | 5.1 | 3.11 | Activity [25]: 35%; inhibition [39]: Active; inhibition (INH) [26]: 60%; inhibition [27]: Active; Drug uptake [29]: Active; Ratio IC50 [7]: 1.1; IC50 [10]: 74 µM; Activity [30]: Active; inhibition [31]: Active; fold change (FC) [32]: 4; fold change (FC) [34]: 4; Time [36]: 4.34 min; Activity [37]: inactive; Activity [24]: 90.4%; Activity [38]: inactive
5 | O=C1O[C@H]([C@@H](O)CO)C(O)=C1O [ASCORBIC ACID] |  |  |  |  |  |  |  |  |  |  |  |  |  |  |  |  |  |  |  |  | IC50 [10]: 6 µM
6 | COc1cc(O)c2c(=O)c(OC)c(-c3ccc(OC)c(OC)c3)oc2c1 [RETUSIN] | 1.4 | 1.6 | > 100 | 1.6 | > 100 | > 100 | 69.7 | 1.6 | 1.6 | > 100 | 82.2 | 1.6 | 1.6 | 68.1 | 1.6 | 1.6 | 142 | > 100 | 1.6 | 57.5 | Activity [24]: 2.5%
7 | O=c1cc(-c2ccccc2)oc2cc(O)cc(O)c12 [CHRYSIN] | 2 | 1.9 | 50.3 | 1.9 | 49.7 | 51 | 33.2 | 1.9 | 1.9 | 28.6 | 60.1 | 1.9 | 1.9 | 54.4 | 1.9 | 1.9 | 77.5 | 54.3 | 1.9 | 29.4 | Ratio IC50 [7]: 1; Ratio IC50 [23]: 1.7
8 | COc1cc(O)c2c(=S)c(OC)c(-c3ccc(OC)c(OC)c3)oc2c1 |  |  |  |  |  |  |  |  |  |  |  |  |  |  |  |  |  |  |  |  | Activity [24]: 18.3%
